The source of these data is PMC5190008, “BO-1055, a novel DNA cross-linking agent with remarkable low myelotoxicity shows potent activity in sarcoma models” (Oncotarget, 2016).

Series [1] has as its system A204 cells. The experiment in a line: Alamar Blue cell proliferation assay. Particulars: Homo sapiens; A204, 72 h drug exposure. It is filed as cell-based. The procedure: (§1) AlamarBlue® assay (Invitrogen, Carlsbad, CA, USA) was performed to evaluate anti-proliferative activity of the drugs in cell lines and primary cells. Cells were plated in 96-well plates ([…] in 200 μL of medium). After 12 h, one of the previously mentioned drugs was added to each well at the specified concentration and incubated for 72 h. At the end of the incubation period, 20 μL of stock solution (0.312 mg/mL) of the Alamar Blue was added to each well. The absorbance was measured using the Synergy H1 hybrid multi-mode microplate reader (BioTek, USA). The drug effect was quantified as the percentage of control absorbance at 540 nm and 585 nm. Optical density was determined for 3 replicates per treatment condition and cell proliferation in drug-treated cells was normalized to their respective controls. All experiments were performed in triplicate.
(§2) Data are presented as mean±S.E.M. of at least three independent experiments done in triplicate. The comparison of means between treated and control mice was performed using two-tailed T-test or ANOVA (for more than two groups) as implemented in GraphPad Prism (version 4; GraphPad Software). Graphpad Prism software was used to plot concentration-effect curves and determine the drug concentration that inhibited the growth of cell lines by 50% compared to the control (IC50). A p-value of 0.05 or less was considered significant. Combination index (CI) values, as calculated by CompuSyn software (Chou and Martin, 2007), were used to evaluate the interaction between BO-1055 and a second drug (Topotecan, SN38, Doxorubicin or PU-H71). The Chou-Talalay method was used to quantify the synergism (CI < 1), additive effect (CI = 1) and antagonism (CI > 1) of various drug combinations.
(The colour change of resazurin is a common sign of viable cells or microbes.)

Series [2] concerns A673 cells. Kind of series: Alamar Blue cell proliferation assay. It is filed as cell-based. The note with it: Homo sapiens; A673, 72 h drug exposure. The procedure:
as §1, §2

Series [3] deals with DSRCT cell lines. The experiment in a line: Alamar Blue cell proliferation assay. In kind it is cell-based. The note with it: Homo sapiens. As to the method:
as §1, §2

The test system of series [4] is H526 cells. Kind of series: Alamar Blue cell proliferation assay. Particulars: Homo sapiens, NCI-H526; H526 (small cell lung cancer). In kind it is cell-based. As to the method:
as §1, §2

Series [5] relates to OSA cells. Kind of series: Alamar Blue cell proliferation assay. It is filed as cell-based. Particulars: Homo sapiens, 72 h drug exposure. The procedure: as §1, §2
In series [6] the test system is RH30 cells. The experiment in a line: Alamar Blue cell proliferation assay. In kind it is cell-based. Particulars: Homo sapiens; RH30, 72 h drug exposure. The procedure: as §1, §2
Series [7] relates to SAOS cells. The experiment in a line: Alamar Blue cell proliferation assay. Particulars: Homo sapiens, 72 h drug exposure. It is filed as cell-based. As to the method:
as §1, §2

The test system of series [8] is TC32 cells. The experiment in a line: Alamar Blue cell proliferation assay. It is filed as cell-based. Particulars: Homo sapiens, TC-32; TC32, 72 h drug exposure. As to the method:
as §1, §2

The subject of series [9] is U2OS cells. Kind of series: Alamar Blue cell proliferation assay. The note with it: Homo sapiens, 72 h drug exposure. In kind it is cell-based. As to the method:
as §1, §2

The subject of series [10] is osteosarcoma cell lines. Kind of series: Alamar Blue cell proliferation assay. In kind it is cell-based. The note with it: Homo sapiens. As to the method:
as §1, §2

The test system of series [11] is A204 cells. The experiment in a line: Cell cycle analysis (propidium iodide). In kind it is cell-based, human. The note with it: A204, prominent at 12-24h of exposure. The procedure: (§3) Cell viability and apoptosis were determined using 7-AAD (BD Pharmingen, San Diego, CA) and Annexin V-APC (BD Pharmingen, San Diego, CA) staining according to the instructions provided by the manufacturer and as previously published. Cell cycle fractions were determined by propidium iodide nuclear staining. Briefly, cells were harvested, washed in PBS, fixed with 70% ethanol, and incubated with propidium iodide/RNase buffer (BD Biosciences, San Diego, CA) for 15 minutes at room temperature. Data was collected on BD LSR Fortessa fluorescence-activated cell analyzer using BD FACS Diva software and analyzed using FlowJo version 9.6 software (Tree Star, Inc. Ashland, OR). Cell cycle analysis was done by applying the Dean/Jett/Fox cell cycle model using FlowJo software.

Series [12] deals with A673 cells. Kind of series: Cell cycle analysis (propidium iodide). It is filed as cell-based, human. Particulars: A673, prominent at 12-24h of exposure. As to the method: as §3
The subject of series [13] is caspase 3/7 in A673 cells. The experiment in a line: Caspase 3/7 activity (ApoTox-Glo Triplex Assay). It is filed as cell-based, human. The note with it: A673, 48h and 72h, concentration dependent. The procedure:
A673 cells were plated at a density of 5 × 10^3 cells/well in 96 well plates. At 48h and 72h post drug exposure, 100μl of Caspase-Glo 3/7 reagent provided in the ApoTox -Glo Triplex Assay (Promega, USA) was added as per the protocol and the luminescence, which indicates caspase activation, was measured using the Synergy H1 hybrid microplate reader.

Series [14] relates to A204 xenografts. The experiment in a line: A204 xenografts in nude mice. It is filed as in vivo. As to the method: All mouse experiments were performed at the animal core facility at MSKCC under an approved protocol following the IACUC guidelines. Five to seven-week-old NOD/SCID IL2R gamma null (NSG) mice (bred at the Mouse Genetics Core Facility, MSKCC) were used for in vivo experiments. All mouse experiments were done following the IACUC guidelines at the animal facility at MSKCC. Tumors were induced using 10^6 A673 cells or A204 cells in 0.2ml 1:1 cellular medium, Matrigel matrix (BD Bioscience, Bedford, MA) and injected subcutaneously (s.q) into the right flank. The tumors were measured every 3 d with a caliper, and the diameters were recorded. Tumor volume was calculated by the formula a^2 b/2 where ‘a’ is the smallest and ‘b’ is the largest diameter. When the tumors reached 100mm^3, we randomized mice into control and drug treatment groups. Treatment groups received BO-1055 by tail vein injection at 10mg/kg, 20mg/kg and 30mg/kg q2d x 5 doses for mice bearing A673 xenografts. BO-1055 was given at 30mg/kg q2d x 5 doses for mice bearing A204 xenografts. De-identified patient tumor tissues were obtained in accordance with and approval from the MSKCC Institutional Review Board (IRB). Appropriate written consent and assent were obtained from the patients prior to sample collection. […]

Bounds are passed on as bounds.

As for `CN(C)CCNC(=O)c1cccc(NC(=O)Nc2ccc(N(CCCl)CCCl)cc2)c1` [BO-1055], the IC50 in [1] was 80 nM; in series [2] it was 520 nM; in series [3], 2000 to 3000 nM; in series [4], 250 nM; in series [5] it was above 10000 nM; in series [6] it was 240 nM. The IC50 in series [7] was above 10000 nM; in [8] it was 600 nM; in series [9], above 10000 nM; in [10], above 10000 nM. Moreover, the cell cycle effect entry in [11] and in series [12] was “concentration-dependent accumulation of cells in the G2/M phase” each time. The “caspase 3/7 activity” value in [13] was “Activation”. Besides, the body weight entry in series [14] (30mg/kg q2d x 5) is “no significant decrease in body weight”. Further, the tumor response entry in series [14] (30mg/kg q2d x 5, tail vein) is “Complete regression of tumors”.

A word on the IC50: it is the concentration that gives 50% inhibition.
